Holding throughout (test): NCI tumour cell line growth inhibition, 48 h
Experiment [1] relates to HCC-2998 colon.
The subject of experiment [2] is M14 melanoma.
The subject of experiment [3] is OVCAR-5 ovarian.
Experiment [4] relates to U251 CNS.
Experiment [5] deals with 786-0 renal.
Experiment [6] deals with BT-549 breast.
Experiment [7] concerns CAKI-1 renal.
For experiment [8], the system named is IGROV1 ovarian.
In experiment [9] the test system is SK-OV-3 ovarian.
Experiment [10] deals with NCI-H460 lung.

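Following 48 hours of exposure in 96-well plates, responses at five concentrations were used to interpolate endpoints linearly. GI50 = concentration required for 50% inhibition of growth. TGI marks complete inhibition of growth.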

Consider `CCN1CCN(Cc2ccc(NC(=O)Nc3nc4ccc(Oc5ccnc(C(=O)NC)c5)cc4s3)cc2C(F)(F)F)CC1`, for which the GI50 in experiment [1] was 2.05 µM; in experiment [2] it was 1.75 µM; in [3], 2.12 µM; in experiment [4], 1.85 µM; in experiment [5], 1.03 µM; in [6], 2.32 µM. Moreover, the GI50 in experiment [7] is 1.94 µM; in [8], 1.76 µM; in experiment [9], 1.82 µM; in [10], 1.91 µM. Moreover, the TGI in [1] was 3.67 µM; in experiment [2], 3.38 µM; in experiment [3], 3.93 µM; in experiment [4] it was 3.45 µM; in experiment [5], 2.36 µM; in [6], 4.25 µM. For the same molecule, the TGI in [7] was 4.15 µM; in experiment [8] it was 3.62 µM; in experiment [9], 3.36 µM; in [10], 3.63 µM.
Regarding `C=C1C(=O)O[C@H]2[C@H]1CC/C(COC(=O)NCc1ccc(OC)cc1)=C\CC[C@@]1(C)O[C@@H]21`, the GI50 in experiment [1] was 1.75 µM; in [2], 0.52 µM; in experiment [3], 2.16 µM; in experiment [4], 2.65 µM; in [5], 0.7 µM; in experiment [6] it was 0.696 µM. Besides, the GI50 in experiment [7] was 0.628 µM; in experiment [8], 0.783 µM; in experiment [9] it was 14.6 µM; in experiment [10] it was 3.16 µM. The TGI in experiment [1] worked out at 6.67 µM; in experiment [2], 1.14 µM; in experiment [3], 8.53 µM; in experiment [4] it was 16.2 µM; in experiment [5], 1.67 µM; in experiment [6] it was 2.07 µM. Also, the TGI in [7] is 2.08 µM; in [8], 2.79 µM; in experiment [9], 29.3 µM; in experiment [10], 18.2 µM.
`CN1CCN(Cc2ccc(NC(=O)c3cncc(C#Cc4cnc(N)cc4C#N)c3)cc2C(F)(F)F)CC1`: the GI50 was 3.9 µM in experiment [1]; 0.623 µM in experiment [2]; 2.76 µM in [3]; 4.45 µM in [4]; 4.38 µM in [5]; 4.25 µM in experiment [6]. For the same molecule, the GI50 in experiment [7] was 3.78 µM; in [8] it was 1.16 µM; in experiment [9], 2.63 µM; in experiment [10], 2.66 µM. Also, the TGI in experiment [1] is 15.4 µM; in [2], 3.86 µM; in [3], 14.2 µM; in experiment [4] it was 19.1 µM; in experiment [5], 16 µM; in [6], 16.8 µM. Further, the TGI in experiment [7] is 16.7 µM; in experiment [8], 5.62 µM; in experiment [9], 9.31 µM; in [10] it was 12.7 µM.
On to `O=S1(=O)N(Cc2ccccc2)[C@@H](Cc2ccccc2)[C@H](O)[C@H](O)[C@H](Cc2ccccc2)N1Cc1ccccc1`, for which the GI50 is 3.41 µM in experiment [1]; 3.04 µM in experiment [2]; 3.57 µM in experiment [3]; 3.07 µM in experiment [4]; 3.24 µM in experiment [5]; 2.65 µM in [6]. For the same molecule, the GI50 is 3.65 µM in [7], 3.57 µM in [8], 4.15 µM in experiment [9] and 3.41 µM in experiment [10]. For the same molecule, the TGI in experiment [1] stood at 6.2 µM; in experiment [2] it was 6.07 µM; in [3] it was 9.1 µM; in [4] it was 6.47 µM; in experiment [5] it was 6.86 µM; in experiment [6] it was 5.53 µM. For the same molecule, the TGI in experiment [7] worked out at 7.33 µM; in [8], 7.24 µM; in experiment [9], 10.6 µM; in [10], 7.91 µM.
For `CN(C)c1nc(=NCc2ccco2)ss1`, the TGI in experiment [1] is above 79.1 µM; in experiment [2] it was above 53.8 µM; in experiment [3], above 55.6 µM; in [4], 67.5 µM; in experiment [5] it was 16.9 µM; in experiment [6] it was 38.4 µM. The TGI in experiment [7] is 49.1 µM; in experiment [8], above 100 µM; in experiment [9], above 87 µM; in experiment [10], above 100 µM.
For the molecule `Cc1ncc(C(=O)Nc2ccc(CN3CCN(C)CC3)c(C(F)(F)F)c2)cc1C#Cc1ccc(N)nc1`, the GI50 in [1] is 0.998 µM; in experiment [2], 0.126 µM; in experiment [3], 0.412 µM; in experiment [4], 0.483 µM; in experiment [5], 0.733 µM; in experiment [6], 1.2 µM. Besides, the GI50 in [7] was 0.104 µM; in [8], 0.118 µM; in [9], 0.395 µM; in experiment [10] it was 0.19 µM. Further, the TGI came out at 4.66 µM in [1]; 0.797 µM in experiment [2]; 5.3 µM in experiment [3]; 4.95 µM in experiment [4]; 4.3 µM in [5]; 4.09 µM in experiment [6]. For the same molecule, the TGI in [7] was 0.533 µM; in experiment [8], 0.751 µM; in experiment [9], 2.56 µM; in experiment [10], 1.84 µM.

For the origin of these results see PubChem BioAssay (NCI).
